{"source": "ChEMBL document CHEMBL1137914", "about": "“Optimizing the antibacterial activity of a lead structure discovered by \"SAR by MS\" technology” (Bioorg Med Chem Lett, 2004)"}
{"test_system": "Escherichia coli", "test": "Antibacterial activity against Escherichia coli was determined at 100 uM", "assay_type": "functional", "units": {"inhibition at 100 µM": "%"}}
{"smiles": "CN(C)CCCOc1ccc(C(NC(=O)c2ccc3nc(O)c(O)nc3c2)C(=O)N2CCNCC2)cc1", "note": "(configuration not stated)", "inhibition at 100 µM": "< 75"}
{"smiles": "CN(C)CCCC(=O)Nc1cccc(-c2ccc(C(=O)N[C@H](CCN)C(=O)N3CCNCC3)o2)c1", "inhibition at 100 µM": "< 75"}
{"smiles": "CN(C)CCCOc1ccc(C(NC(=O)c2ccc(-c3cccc(NC(=O)c4nncs4)c3)o2)C(=O)N2CCNCC2)cc1", "note": "(configuration not stated)", "inhibition at 100 µM": "< 75"}
{"smiles": "CN(C)CCCOc1ccc(C(NC(=O)c2ccc(-c3cccc(NC(=O)c4ccc5nc(O)c(O)nc5c4)c3)o2)C(=O)N2CCNCC2)cc1", "note": "(configuration not stated)", "inhibition at 100 µM": "< 75"}
{"smiles": "NCC[C@@H](NC(=O)c1ccc(-c2cccc(N)c2)o1)C(=O)N1CCNCC1", "inhibition at 100 µM": "< 75"}
{"smiles": "CN(C)CCCOc1ccc(C(NC(=O)c2ccc(-c3cccc(NC(=O)C4CCCCC4)c3)o2)C(=O)N2CCNCC2)cc1", "note": "(configuration not stated)", "inhibition at 100 µM": "< 75"}
{"smiles": "NCC[C@@H](NC(=O)c1ccc(-c2cccc(NS(=O)(=O)c3ccc4nc(O)c(O)nc4c3)c2)o1)C(=O)N1CCNCC1", "inhibition at 100 µM": "< 75"}
{"smiles": "NCC[C@@H](NC(=O)c1ccc(-c2cccc(NC(=O)c3ccccn3)c2)o1)C(=O)N1CCNCC1", "inhibition at 100 µM": "< 75"}
{"smiles": "NCC[C@@H](NC(=O)c1ccc(-c2cccc(NC(=O)c3cnccn3)c2)o1)C(=O)N1CCNCC1", "inhibition at 100 µM": "< 75"}
{"smiles": "Cc1cc(Cl)c2cc(C(=O)Nc3cccc(-c4ccc(C(=O)NC(C(=O)N5CCNCC5)c5ccc(OCCCN(C)C)cc5)o4)c3)ccc2n1", "note": "(configuration not stated)", "inhibition at 100 µM": "< 75"}
{"smiles": "CN(C)CCCOc1ccc(C(NC(=O)c2ccc(-c3cccc(NC(=O)c4ccccn4)c3)o2)C(=O)N2CCNCC2)cc1", "note": "(configuration not stated)", "inhibition at 100 µM": "< 75"}
{"smiles": "Cc1nc2ccc(C(=O)Nc3cccc(-c4ccc(C(=O)NC(C(=O)N5CCNCC5)c5ccc(OCCCN(C)C)cc5)o4)c3)cc2nc1C", "note": "(configuration not stated)", "inhibition at 100 µM": "< 75"}
{"smiles": "CC(=O)Nc1cccc(-c2ccc(C(=O)NC(C(=O)N3CCNCC3)c3ccc(OCCCN(C)C)cc3)o2)c1", "note": "(configuration not stated)", "inhibition at 100 µM": "< 75"}
{"smiles": "Cc1nc2ccc(C(=O)Nc3cccc(-c4ccc(C(=O)N[C@H](CCN)C(=O)N5CCNCC5)o4)c3)cc2nc1C", "inhibition at 100 µM": "< 75"}
{"test_system": "Escherichia coli", "test": "Minimal inhibitory concentration required against Escherichia coli ATCC 25922 was determined; values ranges from 25-50", "assay_type": "functional", "units": {"MIC": "µM"}}
{"smiles": "CN(C)CCCOc1ccc(C(NC(=O)c2ccc(-c3cccc(NC(=O)c4ccc5ccccc5c4)c3)o2)C(=O)N2CCNCC2)cc1", "note": "(configuration not stated)", "MIC": "< 50"}
{"test_system": "Escherichia coli", "test": "(§1) In vitro dissociation constant of compound required for inhibition of Escherichia coli translation was determined", "assay_type": "functional, organism-based", "units": {"IC50": "µM"}}
{"smiles": "CN(C)CCCOc1ccc(C(NC(=O)c2ccc(-c3cccc(NC(=O)c4ccc5ccccc5c4)c3)o2)C(=O)N2CCNCC2)cc1", "note": "(configuration not stated)", "IC50": 10}
{"smiles": "CN(C)CCCOc1ccc(C(NC(=O)c2ccc3nc(O)c(O)nc3c2)C(=O)N2CCNCC2)cc1", "note": "(configuration not stated)", "IC50": "> 200"}
{"smiles": "CN(C)CCCC(=O)Nc1cccc(-c2ccc(C(=O)N[C@H](CCN)C(=O)N3CCNCC3)o2)c1", "IC50": "> 100"}
{"smiles": "CN(C)CCCOc1ccc(C(NC(=O)c2ccc(-c3cccc(NC(=O)c4nncs4)c3)o2)C(=O)N2CCNCC2)cc1", "note": "(configuration not stated)", "IC50": 13}
{"smiles": "CN(C)CCCOc1ccc(C(NC(=O)c2ccc(-c3cccc(NC(=O)c4ccc5nc(O)c(O)nc5c4)c3)o2)C(=O)N2CCNCC2)cc1", "note": "(configuration not stated)", "IC50": 3}
{"smiles": "NCC[C@@H](NC(=O)c1ccc(-c2cccc(N)c2)o1)C(=O)N1CCNCC1", "IC50": "> 100"}
{"smiles": "CN(C)CCCOc1ccc(C(NC(=O)c2ccc(-c3cccc(NC(=O)C4CCCCC4)c3)o2)C(=O)N2CCNCC2)cc1", "note": "(configuration not stated)", "IC50": "> 100"}
{"smiles": "NCC[C@@H](NC(=O)c1ccc(-c2cccc(NS(=O)(=O)c3ccc4nc(O)c(O)nc4c3)c2)o1)C(=O)N1CCNCC1", "IC50": "> 100"}
{"smiles": "NCC[C@@H](NC(=O)c1ccc(-c2cccc(NC(=O)c3ccccn3)c2)o1)C(=O)N1CCNCC1", "IC50": "> 100"}
{"smiles": "NCC[C@@H](NC(=O)c1ccc(-c2cccc(NC(=O)c3cnccn3)c2)o1)C(=O)N1CCNCC1", "IC50": "> 100"}
{"smiles": "Cc1cc(Cl)c2cc(C(=O)Nc3cccc(-c4ccc(C(=O)NC(C(=O)N5CCNCC5)c5ccc(OCCCN(C)C)cc5)o4)c3)ccc2n1", "note": "(configuration not stated)", "IC50": 2}
{"smiles": "CN(C)CCCOc1ccc(C(NC(=O)c2ccc(-c3cccc(NC(=O)c4ccccn4)c3)o2)C(=O)N2CCNCC2)cc1", "note": "(configuration not stated)", "IC50": 20}
{"smiles": "Cc1nc2ccc(C(=O)Nc3cccc(-c4ccc(C(=O)NC(C(=O)N5CCNCC5)c5ccc(OCCCN(C)C)cc5)o4)c3)cc2nc1C", "note": "(configuration not stated)", "IC50": 1}
{"smiles": "CC(=O)Nc1cccc(-c2ccc(C(=O)NC(C(=O)N3CCNCC3)c3ccc(OCCCN(C)C)cc3)o2)c1", "note": "(configuration not stated)", "IC50": "> 100"}
{"smiles": "Cc1nc2ccc(C(=O)Nc3cccc(-c4ccc(C(=O)N[C@H](CCN)C(=O)N5CCNCC5)o4)c3)cc2nc1C", "IC50": 15}
{"test_system": "Staphylococcus aureus", "test": "Minimal inhibitory concentration required against Staphylococcus aureus ATCC 13709 was determined; values ranges from 50-100", "assay_type": "functional", "units": {"MIC": "µM"}}
{"smiles": "CN(C)CCCOc1ccc(C(NC(=O)c2ccc(-c3cccc(NC(=O)c4ccc5ccccc5c4)c3)o2)C(=O)N2CCNCC2)cc1", "note": "(configuration not stated)", "MIC": "< 100"}
{"test_system": "Escherichia coli", "test": "as §1", "assay_type": "functional", "units": {"Kd": "µM"}}
{"smiles": "C=CCNC(=O)c1ccc2nc(O)c(O)nc2c1", "Kd": 150}
{"smiles": "NCC[C@@H](NC(=O)c1ccc(-c2ccccc2)o1)C(=O)N1CCNCC1", "Kd": 50}
{"test_system": "Staphylococcus aureus", "test": "Antibacterial activity against Staphylococcus aureus was determined at 100 uM", "assay_type": "functional", "units": {"inhibition at 100 µM": "%"}}
{"smiles": "CN(C)CCCOc1ccc(C(NC(=O)c2ccc3nc(O)c(O)nc3c2)C(=O)N2CCNCC2)cc1", "note": "(configuration not stated)", "inhibition at 100 µM": "< 75"}
{"smiles": "CN(C)CCCC(=O)Nc1cccc(-c2ccc(C(=O)N[C@H](CCN)C(=O)N3CCNCC3)o2)c1", "inhibition at 100 µM": "< 75"}
{"smiles": "CN(C)CCCOc1ccc(C(NC(=O)c2ccc(-c3cccc(NC(=O)c4nncs4)c3)o2)C(=O)N2CCNCC2)cc1", "note": "(configuration not stated)", "inhibition at 100 µM": "< 75"}
{"smiles": "CN(C)CCCOc1ccc(C(NC(=O)c2ccc(-c3cccc(NC(=O)c4ccc5nc(O)c(O)nc5c4)c3)o2)C(=O)N2CCNCC2)cc1", "note": "(configuration not stated)", "inhibition at 100 µM": "< 75"}
{"smiles": "NCC[C@@H](NC(=O)c1ccc(-c2cccc(N)c2)o1)C(=O)N1CCNCC1", "inhibition at 100 µM": "< 75"}
{"smiles": "CN(C)CCCOc1ccc(C(NC(=O)c2ccc(-c3cccc(NC(=O)C4CCCCC4)c3)o2)C(=O)N2CCNCC2)cc1", "note": "(configuration not stated)", "inhibition at 100 µM": "< 75"}
{"smiles": "NCC[C@@H](NC(=O)c1ccc(-c2cccc(NS(=O)(=O)c3ccc4nc(O)c(O)nc4c3)c2)o1)C(=O)N1CCNCC1", "inhibition at 100 µM": "< 75"}
{"smiles": "NCC[C@@H](NC(=O)c1ccc(-c2cccc(NC(=O)c3ccccn3)c2)o1)C(=O)N1CCNCC1", "inhibition at 100 µM": "< 75"}
{"smiles": "NCC[C@@H](NC(=O)c1ccc(-c2cccc(NC(=O)c3cnccn3)c2)o1)C(=O)N1CCNCC1", "inhibition at 100 µM": "< 75"}
{"smiles": "Cc1cc(Cl)c2cc(C(=O)Nc3cccc(-c4ccc(C(=O)NC(C(=O)N5CCNCC5)c5ccc(OCCCN(C)C)cc5)o4)c3)ccc2n1", "note": "(configuration not stated)", "inhibition at 100 µM": "< 75"}
{"smiles": "CN(C)CCCOc1ccc(C(NC(=O)c2ccc(-c3cccc(NC(=O)c4ccccn4)c3)o2)C(=O)N2CCNCC2)cc1", "note": "(configuration not stated)", "inhibition at 100 µM": "< 75"}
{"smiles": "Cc1nc2ccc(C(=O)Nc3cccc(-c4ccc(C(=O)NC(C(=O)N5CCNCC5)c5ccc(OCCCN(C)C)cc5)o4)c3)cc2nc1C", "note": "(configuration not stated)", "inhibition at 100 µM": "< 75"}
{"smiles": "CC(=O)Nc1cccc(-c2ccc(C(=O)NC(C(=O)N3CCNCC3)c3ccc(OCCCN(C)C)cc3)o2)c1", "note": "(configuration not stated)", "inhibition at 100 µM": "< 75"}
{"smiles": "Cc1nc2ccc(C(=O)Nc3cccc(-c4ccc(C(=O)N[C@H](CCN)C(=O)N5CCNCC5)o4)c3)cc2nc1C", "inhibition at 100 µM": "< 75"}
